Literature values, collected in patent US20040120916A1, “Contact lens care compositions, methods of use and preparation which protect ocular tissue membrane integrity” (ADVANCED MEDICAL OPTICS, INC., priority 2002, published 2004).

Assays:
[1] = test system: rat large-intestinal tissue
[2] = test system: lipopolysaccharide (LPS)-intoxicated rats; settings: LPS rat stomachs irrigated with acid solution
[3] = test system: rat large-intestinal tissue; settings: decrease caused by sodium laurate
[4] = test system: human corneal epithelial cells; settings: 450 mOsm/kg hypertonic medium; 1 mM taurine (0.0125 w/v %)

Compound: NCCS(=O)(=O)O [taurine]
- release of histamine enhanced by sodium laurate [1]: suppress the release of histamine
- ulcerogenic parameters including mucosal histamine concentrations [2]: dose-dependent attenuations
- transepithelial electrical resistance, a measure of cell membrane integrity [3]: significantly suppressed the decrease
- cell survival [4]: significantly increased cell survival
